Measured values reported in ChEMBL document CHEMBL1201862, “PubChem BioAssay data set” (2004).
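Dose response: 5 concentrations. Exposure: 48 h. Format: 96-well plates. Endpoint: linear interpolation; highest concentration if not reached. Abbreviation: GI50, concentration required for 50% inhibition of growth.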 Active and inactive are the calls of the source. Cut-off read from the data, not from the text of the source: active = GI50 up to about 1.1 µM and inactive = higher.

What was measured:
Assay in all cases: NCI-60 cell line screen, 48 h
786-0 = test system: 786-0
ACHN = test system: ACHN
COLO 205 = test system: COLO 205
HCT-15 = test system: HCT-15
IGROV-1 = test system: IGROV-1
MDA-MB-435 = test system: MDA-MB-435
Malme-3M = test system: Malme-3M
NCI-H226 = test system: NCI-H226
OVCAR-4 = test system: OVCAR-4
PC-3 = test system: PC-3
RXF 393 = test system: RXF 393
SF-539 = test system: SF-539
SK-MEL-28 = test system: SK-MEL-28
SK-MEL-5 = test system: SK-MEL-5
SK-OV-3 = test system: SK-OV-3
SNB-19 = test system: SNB-19
SNB-75 = test system: SNB-75
U-251 = test system: U-251
UACC-62 = test system: UACC-62
UO-31 = test system: UO-31

Compound | GI50 (786-0) | GI50 (ACHN) | GI50 (COLO 205) | GI50 (HCT-15) | GI50 (IGROV-1) | GI50 (MDA-MB-435) | GI50 (Malme-3M) | GI50 (NCI-H226) | GI50 (OVCAR-4) | GI50 (PC-3) | GI50 (RXF 393) | GI50 (SF-539) | GI50 (SK-MEL-28) | GI50 (SK-MEL-5) | GI50 (SK-OV-3) | GI50 (SNB-19) | GI50 (SNB-75) | GI50 (U-251) | GI50 (UACC-62) | GI50 (UO-31)
Cc1c(C#N)c2nnn(-c3ccc(Cl)cc3)c(=O)n2c1-c1ccccc1 | 0.12 µM (active) | 0.929 µM (active) | 0.0357 µM (active) | 0.0628 µM | 0.113 µM (active) | < 0.0188 µM (active) | 0.0468 µM (active) | 0.114 µM (active) | 0.351 µM (active) | 0.0459 µM (active) | 0.0764 µM (active) | 0.0492 µM (active) | 10.7 µM (inactive) | 0.0605 µM (active) | 0.145 µM (active) | 0.195 µM (active) | 0.275 µM (active) | 0.0815 µM (active) | 0.149 µM (active) | 3.29 µM (inactive)
Oc1ccccc1/C=N/c1ccc(-c2nc3ccccc3s2)cc1 | 29.2 µM (inactive) | 22.4 µM (inactive) | 19.6 µM (inactive) | 24.4 µM | 28.2 µM (inactive) | 26.6 µM (inactive) | 37.1 µM (inactive) | 24.8 µM (inactive) | 30.2 µM (inactive) | 18.7 µM (inactive) | 28.5 µM (inactive) | 30.8 µM (inactive) | 41.7 µM (inactive) | 15.1 µM (inactive) | 27.2 µM (inactive) | 48.4 µM (inactive) | 36.1 µM (inactive) | 30.9 µM (inactive) | 21.2 µM (inactive) | 28.5 µM (inactive)
C=C(O)c1ccccc1C#Cc1ccccc1C(=O)OC | > 10 µM (inactive) | > 10 µM (inactive) | > 10 µM (inactive) | > 10 µM | > 10 µM (inactive) | > 10 µM (inactive) | > 10 µM (inactive) | > 10 µM (inactive) | > 10 µM (inactive) | > 10 µM (inactive) | > 10 µM (inactive) | > 10 µM (inactive) | > 10 µM (inactive) | > 10 µM (inactive) | > 10 µM (inactive) | > 10 µM (inactive) | 3.66 µM (inactive) | > 10 µM (inactive) | > 10 µM (inactive) | > 10 µM (inactive)
S=C1SSC2N=CC=CC12 (stereo not given) | > 100 µM (inactive) | > 100 µM (inactive) | > 100 µM (inactive) | 57.8 µM | 78.7 µM (inactive) | 17.3 µM (inactive) | 56 µM (inactive) | > 100 µM (inactive) | 16.2 µM (inactive) | 63.4 µM (inactive) | 46.5 µM (inactive) | > 100 µM (inactive) | > 100 µM (inactive) | 43.3 µM (inactive) | > 100 µM (inactive) | > 100 µM (inactive) | > 100 µM (inactive) | > 100 µM (inactive) | 76.4 µM (inactive) | > 100 µM (inactive)
O=S(=O)(SC1=NCCN1)c1cccc2ccccc12 | 25.4 µM (inactive) | 27 µM (inactive) | 17.8 µM (inactive) | 35.3 µM | 21.7 µM (inactive) | 29.6 µM (inactive) | 32 µM (inactive) | 21.6 µM (inactive) | 26.2 µM (inactive) | 29.8 µM (inactive) | 23.9 µM (inactive) | 20.3 µM (inactive) | 47 µM (inactive) | 19.1 µM (inactive) | 19.5 µM (inactive) | 28.7 µM (inactive) | 13.8 µM (inactive) | 35.1 µM (inactive) | 34.4 µM (inactive) | 35.9 µM (inactive)
CC(NC(=O)C(N)CC(=O)O)NC(=O)C1CCC1 (stereo not given) | > 100 µM (inactive) | > 100 µM (inactive) | > 100 µM (inactive) | > 100 µM | > 10 µM (inactive) | > 100 µM (inactive) | > 100 µM (inactive) | > 100 µM (inactive) | > 100 µM (inactive) | > 100 µM (inactive) | > 100 µM (inactive) | > 100 µM (inactive) | > 100 µM (inactive) | > 100 µM (inactive) | 28.2 µM (inactive) | > 100 µM (inactive) | > 100 µM (inactive) | > 100 µM (inactive) | > 100 µM (inactive) | > 100 µM (inactive)
CC(C)(C)c1ccc2c(c1)OCc1n[nH]c(n1)COc1cc(C(C)(C)C)ccc1OCCOCCO2 | 4.45 µM (inactive) | 4.39 µM (inactive) | 2.31 µM (inactive) | 4.95 µM | 5.69 µM (inactive) | 3.21 µM (inactive) | 2.07 µM (inactive) | 2.71 µM (inactive) | 0.248 µM (active) | 2.41 µM (inactive) | 1.62 µM (inactive) | 7.29 µM (inactive) | 2.7 µM (inactive) | 2.38 µM (inactive) | 3.77 µM (inactive) | 4.23 µM (inactive) | 5.27 µM (inactive) | 2.8 µM (inactive) | 2.88 µM (inactive) | 3.67 µM (inactive)
COC(=O)C1=C(O)C(C(=O)OC)[C@@]2(O)[C@@H](C(=O)OC)C(c3ccc(OC(=O)/C(=C/c4ccccc4)c4ccccc4)cc3)C[C@@H]1[C@@H]2C(=O)OC (stereo not given in full) | 6.46 µM (inactive) | 19.7 µM (inactive) | 40 µM (inactive) | 7.18 µM | 19 µM (inactive) | 10.5 µM (inactive) | > 100 µM (inactive) | 9.86 µM (inactive) | 16.9 µM (inactive) | 32.5 µM (inactive) | 9.71 µM (inactive) | 2.46 µM (inactive) | 81.5 µM (inactive) | 26.8 µM (inactive) | > 100 µM (inactive) | 30 µM (inactive) | 12.1 µM (inactive) | 11.2 µM (inactive) | 3.47 µM (inactive) | 10.9 µM (inactive)
O=C1c2ccccc2S(=O)(=O)c2ccccc21 | > 100 µM (inactive) | > 100 µM (inactive) | > 100 µM (inactive) | > 100 µM | > 100 µM (inactive) | > 100 µM (inactive) | > 100 µM (inactive) | > 100 µM (inactive) | > 100 µM (inactive) | > 100 µM (inactive) | > 100 µM (inactive) | > 100 µM (inactive) | > 100 µM (inactive) | > 100 µM (inactive) | > 100 µM (inactive) | > 100 µM (inactive) | > 100 µM (inactive) | > 100 µM (inactive) | > 100 µM (inactive) | > 100 µM (inactive)
O=C(/C=C/c1ccccc1)c1ccccc1 [CHALCONE] | > 10 µM (inactive) | > 10 µM (inactive) | > 10 µM (inactive) | > 10 µM | > 10 µM (inactive) | > 8.13 µM (inactive) | > 10 µM (inactive) | > 10 µM (inactive) | > 10 µM (inactive) | > 10 µM (inactive) | > 10 µM (inactive) | > 10 µM (inactive) | > 10 µM (inactive) | > 10 µM (inactive) | > 10 µM (inactive) | > 10 µM (inactive) | > 10 µM (inactive) | > 10 µM (inactive) | > 10 µM (inactive) | > 10 µM (inactive)
CCCCCCCCCCCCCCCCCCOCC(COP(=O)([O-])OCC[N+](C)(C)C)OC (stereo not given) [EDELFOSINE] | 22.3 µM (inactive) | > 72.8 µM (inactive) | 2.65 µM (inactive) | 3.36 µM | 6.67 µM (inactive) | 98.4 µM (inactive) | 29.6 µM (inactive) | 26.4 µM (inactive) | 26.6 µM (inactive) | 7.19 µM (inactive) | 13.9 µM (inactive) | > 58.5 µM (inactive) | 41.2 µM (inactive) | 41.8 µM (inactive) | 18.2 µM (inactive) | 20.7 µM (inactive) | 8.75 µM (inactive) | 13.6 µM (inactive) | 20.5 µM (inactive) | 27.4 µM (inactive)
O=C1c2scnc2-c2nccc3c2c1nc1ccccc13 [KUANONIAMINE A] | 1.21 µM (inactive) | 0.955 µM (active) | 1.31 µM (inactive) | 0.207 µM | 0.774 µM (active) | 0.191 µM (active) | 0.684 µM (active) | 1.44 µM (inactive) | 1.16 µM (inactive) | 0.664 µM (active) | 1.77 µM (inactive) | 0.232 µM (active) | 1.65 µM (inactive) | 0.0412 µM (active) | 2.54 µM (inactive) | 0.389 µM (active) | 0.94 µM (active) | 0.268 µM (active) | 0.38 µM (active) | 1.16 µM (inactive)
